Experimental data as given in patent US20110118343A1, “Antitumoral Macrolides” (Pharma Mar, S. A., priority 2008, published 2011).
Converted amounts (≈) assume the structure as drawn. Where two headings read alike, the source gives them in different places.

Tests used:
MDA-MB-231 [1] = test: SRB colorimetric cytotoxicity assay, MDA-MB-231; assay type: cell-based; settings: for LC50 (concentration killing 50% of cells) / GI50: Homo sapiens; for LC50 (concentration killing 50% of cells): MDA-MB-231, 72 h, read-out: LC50; for GI50 / TGI: MDA-MB-231, 72 hours treatment, SRB; for TGI: total cell growth inhibition
Excerpt: (§1) The aim of this assay is to evaluate the in vitro cytostatic (ability to delay or arrest tumor cell growth) or cytotoxic (ability to kill tumor cells) activity of the samples being tested.
(§2) A colorimetric assay, using sulforhodamine B (SRB) reaction has been adapted to provide a quantitative measurement of cell growth and viability (following the technique described by Skehan et al. J. Natl. Cancer Inst. 1990, 82, 1107-1112).
(§3) This form of assay employs SBS-standard 96-well cell culture microplates (Faircloth et al. Methods in Cell Science, 1988, 11(4), 201-205; Mosmann et al, Journal of Immunological Methods, 1983, 65(1-2), 55-63). All the cell lines used in this study were obtained from the American Type Culture Collection (ATCC) and derive from different types of human cancer.
(§4) Cells were maintained in Dulbecco's Modified Eagle Medium (DMEM) supplemented with 10% Fetal Bovine Serum (FBS), 2 mM L-glutamine, 100 U/mL penicillin and 100 U/mL streptomycin at 37° C., 5% CO2 and 98% humidity. For the experiments, cells were harvested from subconfluent cultures using trypsinization and resuspended in fresh medium before counting and plating.
(§5) Cells were seeded in 96 well microtiter plates, at 5×10^3-7.5×10^3 cells per well in aliquots of 150 μL, and allowed to attach to the plate surface for 18 hours (overnight) in drug free medium. After that, one control (untreated) plate of each cell line was fixed (as described below) and used for time zero reference value. Culture plates were then treated with test compounds (50 μL aliquots of 4× stock solutions in complete culture medium plus 4% DMSO) using ten serial dilutions (concentrations ranging from 10 to 0.00262 μg/mL) and triplicate cultures (1% final concentration of DMSO). After 72 hours treatment, the antitumor effect was measured by using the SRB methodology: Briefly, cells were washed twice with PBS, fixed for 15 min in 1% glutaraldehyde solution at room temperature, rinsed twice in PBS, and stained in 0.4% SRB solution for 30 min at room temperature. Cells were then rinsed several times with 1% acetic acid solution and air-dried at room temperature. SRB was then extracted in 10 mM trizma base solution and the absorbance measured in an automated spectrophotometric plate reader at 490 nm. Effects on cell growth and survival were estimated by applying the NCI algorithm (Boyd M R and Paull K D. Drug Dev. Res. 1995, 34, 91-104).
(§6) Using the mean±SD of triplicate cultures, a dose-response curve was automatically generated using nonlinear regression analysis. Three reference parameters were calculated (NCI algorithm) by automatic interpolation: GI50=compound concentration that produces 50% cell growth inhibition, as compared to control cultures; TGI=compound concentration that produces total cell growth inhibition (cytostatic effect), as compared to control cultures, and LC50=compound concentration that produces 50% net cell killing (cytotoxic effect).

HT29 [2] = test: SRB colorimetric cytotoxicity assay, HT29; assay type: cell-based; settings: for TGI / GI50: HT29, 72 hours treatment, SRB; for TGI: total cell growth inhibition; for CC50 / GI50: Homo sapiens; for CC50: HT-29, 72 h, read-out: LC50; for GI50: HT-29
Excerpt: as §1, §2, §3, §4, §5, §6

A549 [3] = test: SRB colorimetric cytotoxicity assay, A549; assay type: cell-based; settings: for TGI / GI50: A549, 72 hours treatment, SRB; for TGI: total cell growth inhibition; for CC50 / GI50: Homo sapiens; for CC50: A549, 72 h, read-out: LC50
Excerpt: as §1, §2, §3, §4, §5, §6

P388 leukemia = settings: cited from earlier work; for antitumor activity / toxicity in antitumoral study: P388 leukemia cell line in CDF1 mice
L1210 = L1210 cell line; cited from earlier work
KB cells = settings: KB cell line; cited from earlier work
HT29 [4] = settings: cited from earlier work
MDA-MB-231 [5] = settings: cited from earlier work
A549 [6] = settings: cited from earlier work

| Compound | LC50 (concentration killing 50% of cells) (MDA-MB-231 [1]) [nM] | GI50 (MDA-MB-231 [1]) [nM] | TGI (MDA-MB-231 [1]) [Molar] | TGI (HT29 [2]) [Molar] | CC50 (HT29 [2]) [nM] | GI50 (HT29 [2]) [nM] | TGI (A549 [3]) [Molar] | CC50 (A549 [3]) [nM] | GI50 (A549 [3]) [nM] | antitumor activity (P388 leukemia) | toxicity in antitumoral study (P388 leukemia) | IC50 (cytotoxicity) (L1210) [µg/mL] | IC50 (cytotoxicity) (KB cells) [µg/mL] | other results |
| --- | --- | --- | --- | --- | --- | --- | --- | --- | --- | --- | --- | --- | --- | --- |
| COCC1C/C(C)=C\C2OC(=O)C=C(C/C=C/C(O)CC(O)C(C)C(OC)CCC(C)C(OC)CC3CC(=CC(=O)O3)CC(=O)N/C=C\C=C\CC3CC(=O)OC(C/C(C)=C\C=C\C(OC)CC(=O)O1)C3)C2C (stereo not shown) [Nanomolide B] | 108 | 94.9 | 9.78E−08 | 9.29E−08 | 97.8 | 88 | 1.27E−07 | 235 | 73.4 |  |  |  |  |  |
| CO[C@H]1CC(CC[C@H](C)C2OC(=O)/C=C/C(C)=C/CC(O)C[C@@H]3C=CCC(C[C@H](OC)[C@@H](C)[C@@H](O)C[C@@H](O)[C@H](C)[C@H](O)[C@@H](C)[C@H]([C@@H](C)CC[C@H]4C[C@H](OC)C[C@H](C)O4)OC(=O)/C=C/C(C)=C/C[C@H](O)C[C@@H]4C=CCC(C[C@H](OC)[C@@H](C)[C@@H](O)C[C@@H](O)[C@H](C)[C@H](O)[C@H]2C)O4)O3)O[C@@H](C)C1 (single isomer, unassigned) [isomer 11] |  |  |  |  |  |  |  |  |  | did not show promising antitumor activity | toxic |  |  |  |
| Swinholide B |  |  |  |  |  |  |  |  |  |  |  | 0.30 | 0.04 |  |
| CO[C@H]1CC(CC[C@H](C)[C@H](O)[C@H](C)[C@H]2OC(=O)/C=C/C(C)=C/C[C@H](O)C[C@@H]3C=CC[C@@H](C[C@H](OC)[C@@H](C)[C@@H](O)C[C@@H](O)[C@H](C)[C@@H]([C@@H](C)[C@@H](O)[C@@H](C)CC[C@H]4C[C@H](OC)C[C@H](C)O4)OC(=O)/C=C/C(C)=C/C[C@H](O)C[C@@H]4C=CC[C@@H](C[C@H](OC)[C@@H](C)[C@@H](O)C[C@@H](O)[C@@H]2C)O4)O3)O[C@@H](C)C1 (stereo partly shown) [Swinholide A] |  |  |  |  |  |  |  |  |  | did not show promising antitumor activity | toxic | 0.03 (≈ 0.0216 µM) | 0.04 (≈ 0.0288 µM) |  |
| COCC1C/C(C)=C\C2OC(=O)C/C(=C\C=C\C(O)CC(O)C(C)C(OC)CCC(C)C(OC)CC3CC(=CC(=O)O3)CC(=O)N/C=C\C=C\CC(CC(=O)OC)CC(O)C/C(C)=C\C=C\C(OC)CC(=O)O1)C2C (stereo not shown) [Nanomolide C] | 22.8 | 15.2 | 1.90E−08 | 1.52E−08 | 21.8 | 12.3 | 2.47E−08 | 49.3 | 14.2 |  |  |  |  |  |
| COCC1C/C(C)=C\C2OC(=O)C=C(C/C=C/C(O)CC(O)C(C)C(OC)CCC(C)C(OC)CC3CC(=CC(=O)O3)CC(=O)N/C=C\C=C\CC(CC(=O)OC)CC(O)C/C(C)=C\C=C\C(OC)CC(=O)O1)C2C (stereo not shown) [Nanomolide A] | 45.5 | 8.35 | 1.71E−08 | 1.04E−08 | 16.1 | 7.59 | 1.52E−08 | 23.7 | 10.4 |  |  |  |  |  |
| CO[C@H]1CC(CC[C@H](C)[C@H](O)[C@H](C)C2OC(=O)/C=C/C(C)=C/C[C@H](O)C[C@@H]3C=CC[C@@H](C[C@H](OC)[C@@H](C)[C@@H](O)C[C@@H](O)[C@H](C)[C@H](O)[C@@H](C)[C@H]([C@@H](C)CC[C@H]4C[C@H](OC)C[C@H](C)O4)OC(=O)/C=C/C(C)=C/C[C@H](O)C[C@@H]4C=CCC(C[C@H](OC)[C@@H](C)[C@@H](O)C[C@@H](O)[C@@H]2C)O4)O3)O[C@@H](C)C1 (stereo partly shown) [isoswinholide A] |  |  |  |  |  |  |  |  |  | did not show promising antitumor activity | toxic | 1.35 (≈ 0.971 µM) | 1.1 (≈ 0.791 µM) |  |
| COC1CC(C)OC(CCC(C)C(O)C(C)C2OC(=O)/C(C)=C/CC(O)CC3C=CCC(CC(OC)C(C)C(O)CC(O)C(C)C(C(C)C(O)C(C)CCC4CC(OC)CC(C)O4)OC(=O)/C(C)=C/CC(O)CC4C=CCC(CC(OC)C(C)C(O)CC(O)C2C)O4)O3)C1 (stereo not shown) [Misakinolide A] |  |  |  |  |  |  |  |  |  |  |  | 0.035 (≈ 0.0262 µM) |  | T/C (P388 leukemia; dose of 0.1 mg/kg (mouse) against P388 leukemia): 140% |
| COC1CC(C)OC(CCC(C)C(O)C(C)C2OC(=O)/C=C\C(C)=C\CC(O)CC3C=CCC(CC(OC)C(C)C(O)CC(O)C(C)C(C(C)C(O)C(C)CCC4CC(O)CC(C)O4)OC(=O)/C=C\C(C)=C\CC(O)CC4C=CCC(CC(OC)C(C)C(O)CC(O)C2C)O4)O3)C1 (stereo not shown) [Swinholide C] |  |  |  |  |  |  |  |  |  |  |  | 0.14 (≈ 0.102 µM) | 0.05 (≈ 0.0363 µM) |  |
| COC1CC(C)OC(CCC(C)C(O)C(C)C2OC(=O)/C=C/C(C)=C/CC(O)CC3C=CCC(CC(OC)C(C)C(O)CC(O)C(C)C(C(C)C(O)C(C)CCC4CC(OC)CC(C)O4)OC(=O)/C(C)=C/CC(O)CC4C=CCC(CC(OC)C(C)C(O)CC(O)C2C)O4)O3)C1 (stereo not shown) [compound a] |  |  |  |  |  |  |  |  |  |  |  |  |  | GI50 (HT29 [4]): 338 nM; GI50 (MDA-MB-231 [5]): 808 nM; GI50 (A549 [6]): 228 nM |
